Structures can show the parent of a compound that is named as a salt. Where two headings read alike, the source gives them in different places.
Legend:
[1] = molecular target: T1, lipase from porcine pancreas Type II (Sus scrofa, UniProt P00591); experiment: Lipase inhibitory activity assay (4-methylumbelliferyl oleate fluorescence); format: biochemical; details: final specimen concentration; porcine pancreatic lipase
T1 construct: lipase from porcine pancreas Type II, SIGMA; purchased SIGMA; host or cells: porcine pancreas
Procedure: Assay was carried out in accordance with Non-Patent Document 2 (J. Agric. Food Chem., 2007, 55, 4604-4609). A specimen solution was added to a 96-well fluorescence plate at 25 μl/well. A lipase solution (lipase from porcine pancreas Type II, SIGMA) prepared with the use of PBS(−) was added to the plate of the test group at 25 μl/well and PBS(−) was added to the plate of the blind test group at 25 μl/well. A 0.1 mM fluorescent substrate solution (4-methylumbelliferyl oleate, Fluka) prepared with the use of PBS(−) was added thereto at 50 μl/well, and the reaction was then allowed to proceed for 20 minutes. A 0.1 M sodium citrate solution (pH 4.2) was added as a reaction terminator at 100 μl/well, and fluorescence intensity was assayed using a fluorescence plate reader (Ex 365 nm, Em 450 nm). In a blank test, samples of the test group and of the blind test group were prepared and fluorescence intensity was assayed in the same manner as described above, except that the same amount of a solvent used for the preparation of a specimen solution was used instead of “specimen solution.” The percentage of lipase inhibition was determined by the following formula. […]

[2] = molecular target: lipase from Pseudomonas sp. (type XIII); experiment: Bacterial lipase inhibitory activity test (4-methylumbelliferyl oleate fluorescence); format: biochemical; details: 0.1 μg/ml lipase solution
Source text: In order to extensively evaluate lipase inhibitory activities of the product of the present invention and of a plurality of known components, lipase derived from commercially available bacteria of Pseudomonas (Pseudomonas sp.) was used. Pseudomonas is a […] of gram-negative aerobic bacteria. A representative example of well-known bacteria is P. aeruginosa. In the experiment, lipase from Pseudomonas sp. (type XIII, ≧15 units/solid, L9518, Sigma-Aldrich Japan) was used. This lipase is a very potent enzyme. From the preliminary inquiry to the inhibitory activity test, 0.1 μg/ml of a lipase solution was used. In the experiment, fractions obtained in Examples 2 and 3 containing proanthocyanidin polymers derived from cashew apple of the present invention were subjected to the assay. The following reagent was used as a control sample to assay lipase inhibitory activity.
Assay was carried out in accordance with Non-Patent Document 2 (J. Agric. Food Chem., 2007, 55, 4604-4609). A specimen diluent and a blank solution (a specimen diluent) were added to a 96-well fluorescence plate and then at 25 μl/well. A lipase solution prepared with the use of PBS(−) (lipase from Pseudomonas sp. Type XIII, SIGMA) was added to the test of the present invention at 25 μl/well and PBS(−) was added to the blind test group at 25 μl/well. A 0.1 mM fluorescent substrate solution (4-methylumbelliferyl oleate, Fluka) prepared with the use of PBS(−) was added thereto at 50 μl/well, and the reaction was then allowed to proceed for 20 minutes. A 0.1 M sodium citrate solution (pH 4.2) was added as a reaction terminator at 100 μl/well, and fluorescence intensity was assayed using a fluorescence plate reader (Ex 365 nm, Em 450 nm). Lipase inhibitory activity was determined by the following formula. 3,4-Dihydroxycinnamic acid and gallic acid were dissolved in an aqueous solution of 10% methanol, and a blank solvent was subjected to the assay with the use of an aqueous methanol solution at the same concentration.
<Calculation Formula> Lipase inhibitory activity(%)=(1−(A−B)/(C−D))×100 A: fluorescence intensity in the blind test using a sample solution B: fluorescence intensity in the test of the present invention using a sample solution C: fluorescence intensity in the blind test using a blank solution (a dilute solvent) D: fluorescence intensity in the test of the present invention using a blank solution (a dilute solvent)
Enzyme inhibitory activities of the sample solutions were assayed at a plurality of concentrations, the data were logarithmically plotted, and the concentration at which 50% of lipase activity was inhibited (IC50) was determined by the least-square method.
Using the powders prepared by fractionation via ultrafiltration and lyophilization in Example 3, the relationship between the molecular weight and the bacterial lipase inhibitory activity was examined. The lipase inhibitory activity test was carried out in the manner described in Example 9.

[3] = Assay of antioxidation activity via DPPH radical elimination; details: 30° C., 30 minutes, absorbance 517 nm
Procedure: A solution of a stable radical, diphenyl-p-picrylhydradil (DPPH), in ethanol was used to evaluate the antioxidation activity. Ethanol (1,200 μl) and 400 μl of specimens (adjusted at an arbitrary concentration) were mixed with 1,600 μl of 250 mM acetate buffer (pH 5.5), and the mixture was preincubated at 30° C. for 5 minutes. A 500 μM DPPH/ethanol solution (800 μl) was added thereto, the resulting mixture was allowed to stand at 30° C. for 30 minutes, and the absorbance at 517 nm was assayed. When the control sample dissolved in ethanol was used as a specimen, 800 μl of ethanol, 400 μl of a solution of specimens in ethanol, and 400 μl of purified water were mixed, and the resulting mixture was preincubated at 30° C. for 5 minutes. A 500 μM DPPH/ethanol solution (800 μl) was added thereto, the resulting mixture was allowed to stand at 30° C. for 30 minutes, and the absorbance at 517 nm was assayed. A solution prepared in the same manner except for the use of purified water was used as a control sample. Based on the absorbance assayed, the percentage of radical elimination was determined by the following formula. Radical elimination(%)=(1−[absorbance of sample]/[absorbance of control])×100
The concentration of the sample in the sample solution was gradually changed to determine the percentage of radical elimination, the concentration of the sample solution at which the percentage of DPPH radical elimination became 50% was determined, and the determined value was designated as the 50% elimination concentration of DPPH radicals. As the value is reduced, the capacity for radical elimination is enhanced.

[4] = molecular target: T2, lipase (Sus scrofa, UniProt P00591); details: cited from earlier work; for IC50: read-out: Lipase inhibitory activity (IC50)
T2 sequence (P00591 1-450): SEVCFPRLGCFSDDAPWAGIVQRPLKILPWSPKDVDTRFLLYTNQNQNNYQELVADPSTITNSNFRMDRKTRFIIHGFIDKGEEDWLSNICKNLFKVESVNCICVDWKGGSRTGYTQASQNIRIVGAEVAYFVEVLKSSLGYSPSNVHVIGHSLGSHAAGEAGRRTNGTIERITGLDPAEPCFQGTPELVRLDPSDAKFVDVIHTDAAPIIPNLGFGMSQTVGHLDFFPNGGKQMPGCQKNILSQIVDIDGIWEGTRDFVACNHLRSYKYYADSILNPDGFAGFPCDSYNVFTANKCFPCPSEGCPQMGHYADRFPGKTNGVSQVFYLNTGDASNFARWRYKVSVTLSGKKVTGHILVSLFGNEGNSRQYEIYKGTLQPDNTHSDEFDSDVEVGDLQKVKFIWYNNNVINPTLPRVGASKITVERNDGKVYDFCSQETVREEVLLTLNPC

[5] = molecular target: T2, lipase; details: Non-Patent Document 2; read-out: Lipase inhibitory activity (IC50) (converted); cited from earlier work

Row | Compound | Activity of bacterial lipase inhibition (IC50) [2] [µg/mL] | 50% Elimination concentration of DPPH radicals [3] [µg/mL] | further results
1 | (−)-epigallocatechin 3-O-gallate [Epigallocatechin gallate] | 918.8 | 2.0 | Lipase inhibitory activity (IC50) [1]: 20.0 µg/mL; IC50 ([4]; Patent Document 4): 0.284 µM; Lipase inhibitory activity (IC50) ([4]; Patent Document 5, value in brackets): 0.16 µg/mL; IC50 ([4]; Patent Document 5): 0.349 µM
2 | O=C(/C=C/c1ccc(O)c(O)c1)O[C@@H]1C[C@](O)(C(=O)O)C[C@@H](O)[C@H]1O [Chlorogenic acid, chlorogenic acid] | 69.2 |  | IC50 [1]: 219 µM; IC50 [5]: 169 µM
3 | CN(C)[C@@H]1C(O)=C(C(N)=O)C(=O)[C@@]2(O)C(O)=C3C(=O)c4c(O)cccc4[C@@](C)(O)[C@H]3C[C@@H]12 [Tetracycline hydrochloride] | 134.6 |  | 
4 | O=C(O)C=Cc1ccc(O)c(O)c1 [3,4-Dihydroxycinnamic acid] | 42.3 | 2.8 | 
5 | O.O=C(O)c1cc(O)c(O)c(O)c1 [Gallic acid monohydrate] | 574.2 | 1.2 | 
6 | O=C1O[C@H]([C@@H](O)CO)C(O)=C1O [L(+)-ascorbic acid] |  | 3.9 | 

Source: patent publication US8575368B2, “Proanthocyanidin of cashew apple, composition containing proanthocyanidin, and application thereof” (Nichirei Biosciences, Inc., priority 2008, dated 2013)
